Results from ChEMBL document CHEMBL3272295, “Drugs derived from cannabinoids. 5. delta6a,10a-Tetrahydrocannabinol and heterocyclic analogs containing aromatic side chains” (J Med Chem, 1976).
Calls of active or inactive are those of the source.

Assays:
[1] = tested on: Rattus norvegicus; assay: Antipsychotic activity in rat assessed as reduction of methamphetamine-induced hyperactivity at 10 mg/kg, po administered prior to methamphetamine challenge relative to vehicle-treated control; format: functional; design: scale not given: the % may be the effect or the level left
[2] = tested on: Rattus norvegicus; assay: Antipsychotic activity in rat assessed as reduction of methamphetamine-induced hyperactivity at 20 mg/kg, po administered prior to methamphetamine challenge relative to vehicle-treated control; format: functional; design: scale not given: the % may be the effect or the level left
[3] = tested on: Mus musculus; assay: Analgesic activity in po dosed mouse assessed as inhibition of acetic acid-induced writhing administered 30 mins prior to acetic acid challenge measured after 5 mins for 20 mins; format: functional
[4] = tested on: Rattus norvegicus; assay: Analgesic activity in Sprague-Dawley rat assessed as increase in pain threshold at 20 mg/kg, po after 15 to 90 mins by tail flick test; format: functional
[5] = tested on: Mus musculus; assay: Antianxiety activity in albino BALB/cJ mouse assessed as reduction in footshock-induced fighting behavior at 5 mg/kg, po after 30 to 90 mins; format: functional; design: scale not given: the % may be the effect or the level left
[6] = tested on: Rattus norvegicus; assay: Antianxiety activity in Long-Evans rat assessed as reduction in motor activity at 10 mg/kg, po after 2 hrs relative to vehicle-treated control; format: functional; design: scale not given: the % may be the effect or the level left
[7] = tested on: Rattus norvegicus; assay: Antipsychotic activity in rat assessed as reduction of methamphetamine-induced hyperactivity at 5 mg/kg, po administered prior to methamphetamine challenge relative to vehicle-treated control; format: functional; design: scale not given: the % may be the effect or the level left
[8] = species: Rattus norvegicus; assay: animal or person; format: functional; settings: Charles River, route oral
Description: Antidiarrheal activity in Charles River rat assessed as inhibition of castor oil-induced diarrhea by measuring protected animals at 0.5 mg/kg, po administered 1 hr prior to castor oil challenge measured after 1 hr relative to vehicle-treated control

[9] = Acute toxicity in po dosed mouse; format: organism-based; settings: in vivo
[10] = tested on: Mus musculus; assay: Antidepressant activity in po dosed mouse assessed as potentiation of DOPA-induced effect administered 4 hrs prior to DOPA challenge; format: functional; settings: read-out: MED
[11] = tested on: Rattus norvegicus; assay: Antihypertensive activity in spontaneously hypertensive rat model assessed as reduction in blood pressure at 3 mg/kg, po after 3 hrs; format: functional; design: scale not given: the % may be the effect or the level left
[12] = tested on: Rattus norvegicus; assay: Antihypertensive activity in spontaneously hypertensive rat model assessed as reduction in blood pressure at 3 mg/kg, po after 24 hrs; format: functional; design: scale not given: the % may be the effect or the level left
[13] = tested on: Rattus norvegicus; assay: Antihypertensive activity in spontaneously hypertensive rat model assessed as reduction in blood pressure at 1 mg/kg, po after 3 hrs; format: functional; design: scale not given: the % may be the effect or the level left
[14] = tested on: Rattus norvegicus; assay: Antihypertensive activity in spontaneously hypertensive rat model assessed as reduction in blood pressure at 1 mg/kg, po after 24 hrs; format: functional; design: scale not given: the % may be the effect or the level left
[15] = tested on: Rattus norvegicus; assay: Analgesic activity in Sprague-Dawley rat assessed as increase in pain threshold at 10 mg/kg, po after 15 to 90 mins by tail flick test; format: functional
[16] = tested on: Rattus norvegicus; assay: Antianxiety activity in Long-Evans rat assessed as reduction in motor activity at 5 mg/kg, po after 2 hrs relative to vehicle-treated control; format: functional; design: scale not given: the % may be the effect or the level left
[17] = tested on: Rattus norvegicus; assay: Antianxiety activity in Long-Evans rat assessed as reduction in motor activity at 2 mg/kg, po after 2 hrs relative to vehicle-treated control; format: functional; design: scale not given: the % may be the effect or the level left
[18] = tested on: Rattus norvegicus; assay: Antiulcer activity in albino Sprague-Dawley rat reserpine ulcer model assessed as prevention of reserpine-induced gastric lesions by measuring ulcer index scores at 5 mg/kg, po administered 30 mins prior to reserpine challenge measured after 6 hrs; format: functional, Stomach
[19] = tested on: Rattus norvegicus; assay: Antiulcer activity in albino Sprague-Dawley rat shay ulcer model assessed as ulcer index scores at 5 mg/kg administered intraduodenally post pyloric ligation measured after 18.5 hrs relative to vehicle-treated control; format: functional; settings: route intraduodenal
[20] = tested on: Rattus norvegicus; assay: Antisecretory activity in Sprague-Dawley rat assessed as decrease in acid output at 1 mg/kg, po administered 30 mins prior to pylorus ligation measured after 4 hrs relative to control; format: functional; design: scale not given: the % may be the effect or the level left
[21] = tested on: Rattus norvegicus; assay: Antisecretory activity in Sprague-Dawley rat assessed as decrease in acid output at 2.5 mg/kg, po administered 30 mins prior to pylorus ligation measured after 4 hrs relative to control; format: functional; design: scale not given: the % may be the effect or the level left
[22] = tested on: Rattus norvegicus; assay: Antisecretory activity in Sprague-Dawley rat assessed as decrease in acid output at 5 mg/kg, po administered 30 mins prior to pylorus ligation measured after 4 hrs relative to control; format: functional; design: scale not given: the % may be the effect or the level left
[23] = tested on: Rattus norvegicus; assay: Antisecretory activity in Sprague-Dawley rat assessed as decrease in acid output at 10 mg/kg, po administered 30 mins prior to pylorus ligation measured after 4 hrs relative to control; format: functional; design: scale not given: the % may be the effect or the level left
[24] = tested on: Rattus norvegicus; assay: Increase in pepsin concentration in Sprague-Dawley rat at 1 mg/kg, po administered 30 mins prior to pylorus ligation measured after 4 hrs relative to control; format: functional
[25] = tested on: Rattus norvegicus; assay: Increase in pepsin concentration in Sprague-Dawley rat at 2.5 mg/kg, po administered 30 mins prior to pylorus ligation measured after 4 hrs relative to control; format: functional
[26] = tested on: Rattus norvegicus; assay: Increase in pepsin concentration in Sprague-Dawley rat at 5 mg/kg, po administered 30 mins prior to pylorus ligation measured after 4 hrs relative to control; format: functional
[27] = tested on: Rattus norvegicus; assay: Increase in pepsin concentration in Sprague-Dawley rat at 10 mg/kg, po administered 30 mins prior to pylorus ligation measured after 4 hrs relative to control; format: functional
[28] = tested on: Rattus norvegicus; assay: Antisecretory activity in Sprague-Dawley rat assessed as decrease in pepsin output at 1 mg/kg, po administered 30 mins prior to pylorus ligation measured after 4 hrs relative to control; format: functional; design: scale not given: the % may be the effect or the level left
[29] = tested on: Rattus norvegicus; assay: Antisecretory activity in Sprague-Dawley rat assessed as decrease in pepsin output at 2.5 mg/kg, po administered 30 mins prior to pylorus ligation measured after 4 hrs relative to control; format: functional; design: scale not given: the % may be the effect or the level left
[30] = tested on: Rattus norvegicus; assay: Antisecretory activity in Sprague-Dawley rat assessed as decrease in pepsin output at 5 mg/kg, po administered 30 mins prior to pylorus ligation measured after 4 hrs relative to control; format: functional; design: scale not given: the % may be the effect or the level left
[31] = tested on: Rattus norvegicus; assay: Antisecretory activity in Sprague-Dawley rat assessed as decrease in pepsin output at 10 mg/kg, po administered 30 mins prior to pylorus ligation measured after 4 hrs relative to control; format: functional; design: scale not given: the % may be the effect or the level left
[32] = tested on: Rattus norvegicus; assay: Antiulcer activity in albino Sprague-Dawley rat stress ulcer model assessed as prevention of stress-induced gastric lesions by measuring ulcer index score at 10 mg/kg, po administered 30 mins prior to stress measured after 4 hrs; format: functional, Stomach
[33] = tested on: Rattus norvegicus; assay: Antiulcer activity in albino Sprague-Dawley rat reserpine ulcer model assessed as prevention of reserpine-induced gastric lesions by measuring ulcer index scores at 10 mg/kg, po administered 30 mins prior to reserpine challenge measured after 6 hrs; format: functional, Stomach
[34] = tested on: Rattus norvegicus; assay: Antiulcer activity in albino Sprague-Dawley rat stress ulcer model assessed as prevention of stress-induced gastric lesions at 5 mg/kg, po administered 30 mins prior to stress measured after 4 hrs relative to vehicle-treated control; format: functional, Stomach
[35] = tested on: Rattus norvegicus; assay: Antiulcer activity in albino Sprague-Dawley rat shay ulcer model assessed as ulcer index scores at 10 mg/kg administered intraduodenally post pyloric ligation measured after 18.5 hrs relative to vehicle-treated control; format: functional; settings: route intraduodenal
[36] = tested on: Rattus norvegicus; assay: Antisecretory activity in Sprague-Dawley rat assessed as decrease in volume at 1 mg/kg, po administered 30 mins prior to pylorus ligation measured after 4 hrs relative to control; format: functional; design: scale not given: the % may be the effect or the level left
[37] = tested on: Rattus norvegicus; assay: Antisecretory activity in Sprague-Dawley rat assessed as decrease in volume at 2.5 mg/kg, po administered 30 mins prior to pylorus ligation measured after 4 hrs relative to control; format: functional; design: scale not given: the % may be the effect or the level left
[38] = tested on: Rattus norvegicus; assay: Antisecretory activity in Sprague-Dawley rat assessed as decrease in volume at 5 mg/kg, po administered 30 mins prior to pylorus ligation measured after 4 hrs relative to control; format: functional; design: scale not given: the % may be the effect or the level left
[39] = tested on: Rattus norvegicus; assay: Antisecretory activity in Sprague-Dawley rat assessed as decrease in volume at 10 mg/kg, po administered 30 mins prior to pylorus ligation measured after 4 hrs relative to control; format: functional; design: scale not given: the % may be the effect or the level left
[40] = tested on: Rattus norvegicus; assay: Antisecretory activity in Sprague-Dawley rat assessed as decrease in acidity at 1 mg/kg, po administered 30 mins prior to pylorus ligation measured after 4 hrs relative to control; format: functional; design: scale not given: the % may be the effect or the level left
[41] = tested on: Rattus norvegicus; assay: Antisecretory activity in Sprague-Dawley rat assessed as decrease in acidity at 2.5 mg/kg, po administered 30 mins prior to pylorus ligation measured after 4 hrs relative to control; format: functional; design: scale not given: the % may be the effect or the level left
[42] = tested on: Rattus norvegicus; assay: Antisecretory activity in Sprague-Dawley rat assessed as decrease in acidity at 5 mg/kg, po administered 30 mins prior to pylorus ligation measured after 4 hrs relative to control; format: functional; design: scale not given: the % may be the effect or the level left
[43] = tested on: Rattus norvegicus; assay: Antisecretory activity in Sprague-Dawley rat assessed as decrease in acidity at 10 mg/kg, po administered 30 mins prior to pylorus ligation measured after 4 hrs relative to control; format: functional; design: scale not given: the % may be the effect or the level left
[44] = tested on: Rattus norvegicus; assay: Antipsychotic activity in rat assessed as reduction of methamphetamine-induced hyperactivity at 2.5 mg/kg, po administered prior to methamphetamine challenge relative to vehicle-treated control; format: functional; design: scale not given: the % may be the effect or the level left
[45] = tested on: Mus musculus; assay: Anticonvulsant activity in po dosed mouse assessed as dose required to protect 80% of animal measured after 1 to 4 hrs by audiogenic seizure test; format: functional
[46] = tested on: Mus musculus; assay: Antianxiety activity in albino BALB/cJ mouse assessed as reduction in footshock-induced fighting behavior at 10 mg/kg, po after 30 to 90 mins; format: functional; design: scale not given: the % may be the effect or the level left
[47] = tested on: Rattus norvegicus; assay: Antianxiety activity in Long-Evans rat assessed as reduction in motor activity at 1.25 mg/kg, po after 2 hrs relative to vehicle-treated control; format: functional; design: scale not given: the % may be the effect or the level left
[48] = tested on: Rhesus monkey; assay: Antianxiety activity in po dosed rhesus monkey assessed as antiagressive behavior measured every hour post dosing; format: functional; settings: Macaca mulatta, read-out: MED

SMILES: CN(C)CCCN1c2ccccc2Sc2ccc(Cl)cc21 [CHLORPROMAZINE]
- Activity [1]: 83%
- Activity [2]: 93%
- ED50 [3]: 2.4 mg/kg
- Activity [4]: 37%
- Activity [5]: 79%
- Activity [6]: 76%
- Activity [7]: 11%

SMILES: CC1CCC2=C(C1)c1c(O)cc(C(C)C(C)CCc3ccncc3)cc1OC2(C)C (stereo not given)
- inhibition in vivo at 0.5 mg/kg [8]: 90%
- LD50 [9]: ≥ 1000 mg/kg
- minimal effective dose [10]: 20 mg/kg
- Activity [11]: 19%
- Activity [12]: 7%
- Activity [13]: 13%
- Activity [14]: 15%
- ED50 [3]: 4.7 mg/kg
- Activity [15]: 58%
- Activity [5]: 0%
- Activity [16]: 42%
- Activity [17]: 28%
- Activity [7]: 13%

SMILES: Cl.NC(=S)Cc1ccccn1
- UI [18]: 0.1
- UI [19]: 3.3
- Activity [20]: 35.5%
- Activity [21]: 47.3%
- Activity [22]: 81.8%
- Activity [23]: 95.5%
- Activity [24]: 29.3%
- Activity [25]: 43.1%
- Activity [26]: 92.6%
- Activity [27]: 45.8%
- Activity [28]: 19%
- Activity [29]: 8.4%
- Activity [30]: 31%
- Activity [31]: 58.9%
- UI [32]: 0
- UI [33]: 0
- UI [34]: 0.4
- UI [35]: 0.7
- Activity [36]: 33.1%
- Activity [37]: 35.8%
- Activity [38]: 64%
- Activity [39]: 76.7%
- Activity [40]: 3.8%
- Activity [41]: 17.4%
- Activity [42]: 49.8%
- Activity [43]: 86.3%

SMILES: CCCCCC(C)C(C)c1cc(O)c2c(c1)OC(C)(C)C1CC=C(C)CC21 (stereo not given)
- LD50 [9]: ≥ 1000 mg/kg
- Activity [44]: 52%
- minimal effective dose [10]: 20 mg/kg
- Activity [45]: inactive
- ED50 [3]: 7.9 mg/kg
- Activity [46]: 89%
- Activity [47]: 60%
- minimal effective dose [48]: 1 mg/kg
- Activity [7]: 81%
